In patent publication US20180280517A1, “Nanocomposite, a Preparation Method Thereof and Method for Treating Cancer Using the Same” (National Chiao Tung University, priority 2017, published 2018) one finds IC50 data, which are given here for two compounds.

One test has as its system A549. The test can be described thus: A549 cell viability / combination index. Type of test: cell-based. Conditions: Homo sapiens. The source says:
(§1) The combination index or CI means a value acquired through a calculation based on the Combination Index Theorem. From CI value, the interaction between components within a drug having multiple components can be understood. For example, the CI value quantitatively defines synergism (CI<1), additive effect (CI=1), and antagonism (CI>1) among components.
(§2) The expression fraction affected (Fa) means the fraction affected of a component according to Median-Effect Principle. A CI-Fa plot can be used to define the synergism and antagonism relation between different components.
In another preferable embodiment, A549 cells, which are selected as cancer cell model, are respectively incubated with DMC, GEM, CHC/DMC, and CHC/GEM. In Table 4, DMC or GEM encapsulated by CHC has smaller IC50 comparing to those without CHC encapsulation, proving that an anti-cancer component encapsulated by CHC has higher toxic effect to the cells.
In an embodiment, a plurality of CHC/DMC-GEM having different DMC to GEM ratios including 1:2.5, 1:5, 1:10, and 1:20 are respectively incubated with A549 to find a drug ratio with better synergistic effect. After calculation, a CI versus Fa plot is shown in FIG. 7 based on the viability of A549 cells. […]

For a further test, the system named is A549-ON. Put plainly: A549-ON cell viability / combination index. Type of test: cell-based.
Excerpt: as §1, §2
In a preferable embodiment, A549-ON is chosen as the cancer cell model. A549-ON is incubated with DMC, GEM, CHC/DMC, and CHC/GEM respectively to observe cell viability. In Table 3, DMC and GEM encapsulated by CHC has smaller IC50 comparing to those without CHC encapsulation, providing that an anti-cancer component encapsulated by CHC has higher toxic effect to the cells.
In an embodiment, a plurality of CHC/DMC-GEM having different DMC to GEM ratio including 1:1.2, 1:5, 1:12, and 1:25 are respectively incubated with A549-ON to find a component ratio with better synergistic effect. […]

What is called IC50 is the concentration that inhibits the measured activity by half. As to `Nc1ccn([C@@H]2O[C@H](CO)[C@@H](O)C2(F)F)c(=O)n1` [GEM, Gemcitabine], the IC50 in the test on A549 and in the test on A549-ON was 117 µg/mL in each case.
For `COc1cc(/C=C/C(O)=C/C(=O)/C=C/c2ccc(O)cc2)ccc1O` [DMC, Demethoxycurcumin], the results for the IC50 in the test with A549 and with A549-ON were 10.3 µg/mL and 10 µg/mL, respectively.
